# Measurements from US12673961B2 (Agios Pharmaceuticals, Inc., priority 2022, dated 2026).
# Like-named read-outs stand apart in the source and are kept apart here.
# Target: T1, human PAH with the R408W mutation (Homo sapiens, UniProt P00439, R408W)
# T1 construct: expressed in transfected cells
# T1 sequence (P00439 1-452 R408W): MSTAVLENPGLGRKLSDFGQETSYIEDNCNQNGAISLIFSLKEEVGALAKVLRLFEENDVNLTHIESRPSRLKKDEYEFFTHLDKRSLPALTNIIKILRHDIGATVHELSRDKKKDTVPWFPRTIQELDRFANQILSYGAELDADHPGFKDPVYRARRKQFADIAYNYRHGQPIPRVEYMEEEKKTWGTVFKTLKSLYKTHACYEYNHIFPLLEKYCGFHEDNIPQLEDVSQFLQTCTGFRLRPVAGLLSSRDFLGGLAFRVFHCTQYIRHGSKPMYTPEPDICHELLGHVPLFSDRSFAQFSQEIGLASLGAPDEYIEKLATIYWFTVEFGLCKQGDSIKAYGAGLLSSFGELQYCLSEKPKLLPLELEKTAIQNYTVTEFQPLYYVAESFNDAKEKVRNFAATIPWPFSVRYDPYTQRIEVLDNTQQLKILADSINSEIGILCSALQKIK
# Experiment: Cell Based Phenylalanine Flux Assay;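 note: Ten-point dose curve from 2-fold serial dilutions, run in duplicate at 0.5% DMSO final, tracer step used 20 µM sepiapterin and 800 µM labeled phenylalanine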
# Parameters: scale not given here
# Conditions: A375 cells expressing R408W PAH, 24 hrs with compound, then 20 μM sepiapterin and 800 μM 13C9,15N-Phenylalanine for 4 hours, 13C-Tyrosine in media by LC-MS, average where tested multiple times
Structure (SMILES),AC50,AC50 (read-out: AC50) [µM]
COc1cccn2nc(C3c4nc[nH]c4CCN3C(=O)c3ccnn3C3CC3)cc12 (centres unmarked),"E, E",–
COc1cccn2nc(C3c4nc[nH]c4CCN3C(=O)c3cc(C(C)(C)C)nn3C)cc12 (centres unmarked),–,> 5
N#Cc1ncoc1C(=O)N1CCc2[nH]cnc2C1c1nn2ccccc2c1Br (centres unmarked),–,1 to 5
CC(C)(F)c1nnc(C(=O)N2CCc3[nH]cnc3C2c2cc3cc(C(F)(F)F)ccn3n2)o1 (centres unmarked),–,1 to 5
O=C(c1nnc(-c2cn[nH]c2)o1)N1CCc2[nH]cnc2C1c1cc2c(F)cccn2n1 (centres unmarked),–,1 to 5
O=C(c1nnc(-c2ncccn2)o1)N1CCc2[nH]cnc2C1c1cc2c(C3CC3)cccn2n1 (centres unmarked),–,> 5
CC(C)(O)c1nc(C(F)(F)F)c(C(=O)N2CCc3[nH]cnc3C2c2cc3c(Cl)cccn3n2)o1 (centres unmarked),"E, E",–
COc1cccn2nc(C3c4nc[nH]c4CCN3C(=O)c3nnc(C(C)(C)O)o3)cc12 (centres unmarked),–,> 5
Cc1cccn2nc(C3c4nc[nH]c4CCN3C(=O)c3oc(C(C)(C)O)nc3C(F)(F)F)cc12 (centres unmarked),"E, E",–
COc1cccn2nc(C3c4nc[nH]c4CCN3C(=O)c3ccnn3C)cc12 (centres unmarked),"E, E",–
COc1cccn2nc(C3c4nc[nH]c4CCN3C(=O)c3ncnn3C)cc12 (centres unmarked),"E, E",–
COc1cccn2nc(C3c4nc[nH]c4CCN3C(=O)c3ccnn3C(C)C)cc12 (centres unmarked),"E, E",–
COc1cccn2nc(C3c4nc[nH]c4CCN3C(=O)c3ccnn3C(F)(F)F)cc12 (centres unmarked),"E, E",–
Cc1cccn2nc(C3c4nc[nH]c4CCN3C(=O)c3ccnn3C(F)(F)F)cc12 (centres unmarked),"E, E",–
"Cc1ccn2nc(C3c4nc[nH]c4CCN3C(=O)c3nnc(-c4cnn(C)c4)o3)cc2c1 (single isomer, unassigned)",–,> 5
"Cn1cncc1-c1nnc(C(=O)N2CCc3[nH]cnc3[C@@H]2c2cc3cccc(C(F)F)n3n2)o1 (single isomer, unassigned)",–,> 5
"Cc1nnc(C(=O)N2CCc3[nH]cnc3[C@@H]2c2cc3cccc(C)n3n2)o1 (single isomer, unassigned)",–,> 5
"Cn1nc(C(F)F)cc1C(=O)N1CCc2[nH]cnc2[C@@H]1c1cc2ccccn2n1 (single isomer, unassigned)",–,> 5
"Cn1nc(C(C)(C)C)cc1C(=O)N1CCc2[nH]cnc2[C@@H]1c1cc2c(F)cccn2n1 (single isomer, unassigned)",–,> 5
"Cc1cccn2nc(C3c4nc[nH]c4CCN3C(=O)c3ccnn3C(F)(F)F)cc12 (single isomer, unassigned)","E, E",–

Structure (SMILES),AC50,AC50 (read-out: AC50) [µM]
"COc1cccn2nc([C@@H]3c4nc[nH]c4CCN3C(=O)c3ccnn3C3CC3)cc12 (single isomer, unassigned)","E, E",–
"Cn1cncc1-c1nnc(C(=O)N2CCc3[nH]cnc3[C@H]2c2cc3cccc(C(F)(F)F)n3n2)o1 (single isomer, unassigned)",–,1 to 5
"Cn1ccc(-c2nnc(C(=O)N3CCc4[nH]cnc4[C@H]3c3cc4cc(C(F)(F)F)ccn4n3)o2)n1 (single isomer, unassigned)",–,1 to 5
"O=C(c1nnc(C2CC(F)(F)C2)o1)N1CCc2[nH]cnc2[C@H]1c1cc2cccc(C(F)F)n2n1 (single isomer, unassigned)",–,1 to 5
"Cc1nnc(C(=O)N2CCc3[nH]cnc3[C@H]2c2cc3c(OC(F)F)cccn3n2)o1 (single isomer, unassigned)",–,1 to 5
"COc1cccn2nc([C@@H]3c4nc[nH]c4CCN3C(=O)c3nnc(-c4cnn(C(F)(F)F)c4)o3)cc12 (single isomer, unassigned)",–,1 to 5
"Cc1cccc2cc([C@@H]3c4nc[nH]c4CCN3C(=O)c3nnc(C(C)(C)O)o3)nn12 (single isomer, unassigned)",–,1 to 5
"Cc1c([C@@H]2c3nc[nH]c3CCN2C(=O)c2nnc(C(C)(C)O)o2)nn2ccccc12 (single isomer, unassigned)",–,> 5
"O=C(c1nnc(-c2ncccn2)o1)N1CCc2[nH]cnc2[C@H]1c1cc2c(OC(F)F)cccn2n1 (single isomer, unassigned)",–,1 to 5
"COc1cccn2nc([C@@H]3c4nc[nH]c4CCN3c3nnc(-c4ccccn4)o3)cc12 (single isomer, unassigned)",–,1 to 5
"CC(C)(O)c1noc(C(=O)N2CCc3[nH]cnc3[C@H]2c2cc3ccccn3n2)n1 (single isomer, unassigned)",–,> 5
"Cc1nnc(C(=O)N2CCc3[nH]cnc3C2c2nn3ccccc3c2C)o1 (single isomer, unassigned)",–,1 to 5
"Cn1nc(C(F)F)nc1C(=O)N1CCc2[nH]cnc2[C@H]1c1cc2ccc(F)cn2n1 (single isomer, unassigned)",–,1 to 5
"Cn1nc(C2CC2)nc1C(=O)N1CCc2[nH]cnc2C1c1cc2c(F)cccn2n1 (single isomer, unassigned)",–,1 to 5
"O=C(c1nnc(N2CCOCC2)o1)N1CCc2[nH]cnc2[C@H]1c1cc2ccccn2n1 (single isomer, unassigned)",–,1 to 5
"Cn1cnc(-c2nc(C(F)F)c(C(=O)N3CCc4[nH]cnc4[C@H]3c3cc4ccccn4n3)o2)c1 (single isomer, unassigned)","E, E",–
"COCc1ccc2c(C(=O)N3CCc4[nH]cnc4[C@H]3c3cc4ccccn4n3)cnn2c1 (single isomer, unassigned)",–,1 to 5
"CN(C)c1nnc(C(=O)N2CCc3[nH]cnc3[C@H]2c2cc3ccccn3n2)o1 (single isomer, unassigned)",–,1 to 5
"Cc1nc([C@@H](C)O)oc1C(=O)N1CCc2[nH]cnc2[C@H]1c1cc2cccc(C)n2n1 (single isomer, unassigned)",–,1 to 5

# Other lines, results leading:
AC50,AC50 (read-out: AC50) [µM],Structure (SMILES)
"E, E",–,Cn1cnc(-c2nc(C(F)F)c(C(=O)N3CCc4[nH]cnc4C3c3cc4ccccn4n3)o2)c1 (centres unmarked)
"E, E",–,Cc1cccn2nc(C3c4nc[nH]c4CCN3C(=O)c3ocnc3C(F)(F)F)cc12 (centres unmarked) [listing 1 of 2 here]
–,> 5,Fc1ccc(-c2nnc(N3CCc4[nH]cnc4C3c3cc4ccccn4n3)o2)nc1 (centres unmarked)
–,> 5,Cn1cc(N2CCc3[nH]cnc3C2c2cc3ccccn3n2)cn1 (centres unmarked)
"E, E",–,Cc1cccn2nc(C3c4nc[nH]c4CCN3C(=O)c3ccnn3C)cc12 (centres unmarked)
–,1 to 5,CC1(c2nnc(N3CCc4[nH]cnc4C3c3cc4ccccn4n3)o2)CC1 (centres unmarked)
–,1 to 5,O=C(c1nnc(-c2cc[nH]n2)o1)N1CCc2[nH]cnc2C1c1cc2ccccn2n1 (centres unmarked)
–,1 to 5,O=C(c1nnc(C2CC(F)(F)C2)o1)N1CCc2[nH]cnc2C1c1cc2cccc(F)n2n1 (centres unmarked)
"E, E",–,CC(C)c1cccn2nc(C3c4nc[nH]c4CCN3c3ncccn3)cc12 (centres unmarked)
–,1 to 5,Cc1nnc(C(=O)N2CCc3[nH]cnc3C2c2cc3ccc(F)cn3n2)o1 (centres unmarked)
–,1 to 5,Cc1nnc(C(=O)N2CCc3[nH]cnc3C2c2cc3cccc(C(F)F)n3n2)o1 (centres unmarked)
–,> 5,Nc1cnc(N2CCc3[nH]cnc3C2c2cc3cccc(C(F)F)n3n2)nc1 (centres unmarked)
–,1 to 5,Cn1cnc(-c2nnc(C(=O)N3CCc4[nH]cnc4C3c3cc4cccc(C(F)F)n4n3)o2)c1 (centres unmarked)
"E, E",–,Cc1ccn2nc(C3c4nc[nH]c4CCN3C(=O)c3oc(C(C)(C)O)nc3C(F)F)cc2c1 (centres unmarked)
–,1 to 5,COCc1ncc(C(=O)N2CCc3[nH]cnc3C2c2cc3ccccn3n2)o1 (centres unmarked)
–,1 to 5,c1ccn2nc(C3c4nc[nH]c4CCN3c3nnc(C4CC4)o3)cc2c1 (centres unmarked)

AC50,AC50 (read-out: AC50) [µM],Structure (SMILES)
"E, E",–,FC(F)c1cccn2nc(C3c4nc[nH]c4CCN3c3nnc(-c4ccncn4)o3)cc12 (centres unmarked)
–,1 to 5,COCc1ccc2c(C(=O)N3CCc4[nH]cnc4C3c3cc4cccc(F)n4n3)cnn2c1 (centres unmarked)
E. E,–,O=C(c1ocnc1C(F)(F)F)N1CCc2[nH]cnc2C1c1cc2c(Cl)cccn2n1 (centres unmarked)
"E, E",–,Cc1cccn2nc(C3c4nc[nH]c4CCN3C(=O)c3ccnn3C(C)C)cc12 (centres unmarked)
"E, E",–,Cc1cccn2nc(C3c4nc[nH]c4CCN3C(=O)c3ocnc3C(F)(F)F)cc12 (centres unmarked) [listing 2 of 2 here]
–,> 5,"Fc1cccc2cc([C@H]3c4nc[nH]c4CCN3c3ncccn3)nn12 (single isomer, unassigned)"
"E, E",–,"FC(F)c1cccn2nc([C@H]3c4nc[nH]c4CCN3c3nnc(-c4ccncn4)o3)cc12 (single isomer, unassigned)"
–,1 to 5,"O=C(Cc1cnn2ccccc12)N1CCc2[nH]cnc2[C@H]1c1cc2ccccn2n1 (single isomer, unassigned)"
–,1 to 5,"Cc1cccn2nc([C@@H]3c4nc[nH]c4CCN3c3nnc(-c4cnn(C)c4)o3)cc12 (single isomer, unassigned)"
–,1 to 5,"Cn1cc(-c2nnc(N3CCc4[nH]cnc4[C@H]3c3cc4c(C(F)(F)F)cccn4n3)o2)cn1 (single isomer, unassigned)"
–,> 5,"Cc1nnc(N2CCc3[nH]cnc3[C@H]2c2cc3cccc(C(F)F)n3n2)o1 (single isomer, unassigned)"
–,1 to 5,"Fc1cccc2cc([C@@H]3c4nc[nH]c4CCN3c3ncccn3)nn12 (single isomer, unassigned)"
–,> 5,"Nc1cnc(N2CCc3[nH]cnc3[C@H]2c2cc3ccccn3n2)nc1 (single isomer, unassigned)"
–,1 to 5,"c1ccn2nc(C3c4nc[nH]c4CCN3c3nnc(C4CCC4)o3)cc2c1 (single isomer, unassigned)"
–,1 to 5,"FC(F)(F)c1cccc2cc([C@@H]3c4nc[nH]c4CCN3c3nnc(C4CC4)o3)nn12 (single isomer, unassigned)"
–,1 to 5,"Cc1cccn2nc([C@@H]3c4nc[nH]c4CCN3c3nnc(C(=O)N(C)C)o3)cc12 (single isomer, unassigned)"
